# Measured values published in ChEMBL document CHEMBL3400015, “Tertiary amides of Salinomycin: A new group of antibacterial agents against Bacillus anthracis and methicillin-resistant Staphylococcus epidermidis” (Bioorg Med Chem Lett, 2015).
# Key:
# Pseudomonas aeruginosa [1] = test: Bactericidal activity against Pseudomonas aeruginosa ATCC 27853 after 24 hrs; type: functional; details: ATCC 27853, 24 h, read-out: MBC99.9
# Staphylococcus aureus [2] = test: Antimicrobial activity against Staphylococcus aureus […] after 18 hrs by twofold serial broth dilution method; type: functional
# [3] = test system: Staphylococcus epidermidis; test: Bactericidal activity against methicillin-resistant Staphylococcus epidermidis isolate 460/11 after 24 hrs; type: functional; details: isolate 460/11, 24 h, read-out: MBC99.9
# [4] = test system: Staphylococcus epidermidis; test: Bactericidal activity against methicillin-resistant Staphylococcus epidermidis isolate 454/11 after 24 hrs; type: functional; details: isolate 454/11, 24 h, read-out: MBC99.9
# [5] = test system: Staphylococcus epidermidis; test: Bactericidal activity against methicillin-resistant Staphylococcus epidermidis isolate 470/11 after 24 hrs; type: functional; details: isolate 470/11, 24 h, read-out: MBC99.9
# [6] = test system: Staphylococcus epidermidis; test: Bactericidal activity against methicillin-resistant Staphylococcus epidermidis isolate 404/10 after 24 hrs; type: functional; details: isolate 404/10, 24 h, read-out: MBC99.9
# [7] = test system: Staphylococcus epidermidis; test: Bactericidal activity against methicillin-resistant Staphylococcus epidermidis isolate 458/11 after 24 hrs; type: functional; details: isolate 458/11, 24 h, read-out: MBC99.9
# Pseudomonas aeruginosa [8] = test: Antimicrobial activity against Pseudomonas aeruginosa ATCC 27853 after 18 hrs by twofold serial broth dilution method; type: functional; details: ATCC 27853, 18 h
# [9] = test system: Staphylococcus epidermidis; test: Antimicrobial activity against methicillin-resistant Staphylococcus epidermidis isolate 409/10 after 18 hrs by twofold serial broth dilution method; type: functional; details: isolate 409/10, 18 h
# Staphylococcus aureus [10] = test: Antimicrobial activity against Staphylococcus aureus ATCC 25923 after 18 hrs by twofold serial broth dilution method; type: functional; details: ATCC 25923, 18 h
# Escherichia coli [11] = test: Bactericidal activity against Escherichia coli ATCC 10538 after 24 hrs; type: functional; details: ATCC 10538, 24 h, read-out: MBC99.9
# Staphylococcus aureus [12] = test: Bactericidal activity against Staphylococcus aureus ATCC 25923 after 24 hrs; type: functional; details: ATCC 25923, 24 h, read-out: MBC99.9
# Staphylococcus aureus [13] = test: Bactericidal activity against Staphylococcus aureus […] after 24 hrs; type: functional; details: read-out: MBC99.9
# Escherichia coli [14] = test: Antimicrobial activity against Escherichia coli ATCC 25922 after 18 hrs by twofold serial broth dilution method; type: functional; details: ATCC 25922, 18 h
# [15] = test system: Staphylococcus epidermidis; test: Bactericidal activity against methicillin-resistant Staphylococcus epidermidis isolate 461/11 after 24 hrs; type: functional; details: isolate 461/11, 24 h, read-out: MBC99.9
# [16] = test system: Staphylococcus epidermidis; test: Antimicrobial activity against methicillin-resistant Staphylococcus epidermidis isolate 404/10 after 18 hrs by twofold serial broth dilution method; type: functional; details: isolate 404/10, 18 h
# [17] = test system: Staphylococcus epidermidis; test: Antimicrobial activity against methicillin-resistant Staphylococcus epidermidis isolate 424/10 after 18 hrs by twofold serial broth dilution method; type: functional; details: isolate 424/10, 18 h
# Bacillus subtilis [18] = test: Genotoxicity in rec-positive Bacillus subtilis H17 at 2 ug/9 mm disc after 24 hrs by disc diffusion method; type: toxicity, organism-based
# Bacillus anthracis = test: Antimicrobial activity against Bacillus anthracis 34F2 after 18 hrs by twofold serial broth dilution method; type: functional; details: 34F2, 18 h
# [19] = test system: Staphylococcus epidermidis; test: Antimicrobial activity against methicillin-resistant Staphylococcus epidermidis isolate 407/10 after 18 hrs by twofold serial broth dilution method; type: functional; details: isolate 407/10, 18 h
# Escherichia coli [20] = test: Bactericidal activity against Escherichia coli NCTC 8196 after 24 hrs; type: functional; details: NCTC 8196, 24 h, read-out: MBC99.9
# [21] = test system: Staphylococcus epidermidis; test: Antimicrobial activity against methicillin-resistant Staphylococcus epidermidis isolate 422/10 after 18 hrs by twofold serial broth dilution method; type: functional; details: isolate 422/10, 18 h
# [22] = test system: Staphylococcus epidermidis; test: Antimicrobial activity against methicillin-resistant Staphylococcus epidermidis isolate 455/11 after 18 hrs by twofold serial broth dilution method; type: functional; details: isolate 455/11, 18 h
# Escherichia coli [23] = test: Antimicrobial activity against Escherichia coli NCTC 8196 after 18 hrs by twofold serial broth dilution method; type: functional; details: NCTC 8196, 18 h
# Staphylococcus aureus [24] = test: Bactericidal activity against Staphylococcus aureus NCTC 4163 after 24 hrs; type: functional; details: NCTC 4163, 24 h, read-out: MBC99.9
# [25] = test system: Staphylococcus epidermidis; test: Antimicrobial activity against Staphylococcus epidermidis ATCC 35984 after 18 hrs by twofold serial broth dilution method; type: functional; details: ATCC 35984, 18 h
# Pseudomonas aeruginosa [26] = test: Antimicrobial activity against Pseudomonas aeruginosa ATCC 15442 after 18 hrs by twofold serial broth dilution method; type: functional; details: ATCC 15442, 18 h
# [27] = test system: Staphylococcus epidermidis; test: Antimicrobial activity against methicillin-resistant Staphylococcus epidermidis isolate 457/11 after 18 hrs by twofold serial broth dilution method; type: functional; details: isolate 457/11, 18 h
# [28] = test system: Staphylococcus epidermidis; test: Antimicrobial activity against methicillin-resistant Staphylococcus epidermidis isolate 470/11 after 18 hrs by twofold serial broth dilution method; type: functional; details: isolate 470/11, 18 h
# Staphylococcus aureus [29] = test: Antimicrobial activity against Staphylococcus aureus ATCC 6538 after 18 hrs by twofold serial broth dilution method; type: functional; details: ATCC 6538, 18 h
# [30] = test system: Staphylococcus epidermidis; test: Antimicrobial activity against methicillin-resistant Staphylococcus epidermidis isolate 454/11 after 18 hrs by twofold serial broth dilution method; type: functional; details: isolate 454/11, 18 h
# Staphylococcus aureus [31] = test: Antimicrobial activity against Staphylococcus aureus NCTC 4163 after 18 hrs by twofold serial broth dilution method; type: functional; details: NCTC 4163, 18 h
# [32] = test system: Staphylococcus epidermidis; test: Antimicrobial activity against methicillin-resistant Staphylococcus epidermidis isolate 458/11 after 18 hrs by twofold serial broth dilution method; type: functional; details: isolate 458/11, 18 h
# [33] = test system: Staphylococcus epidermidis; test: Bactericidal activity against methicillin-resistant Staphylococcus epidermidis isolate 469/11 after 24 hrs; type: functional; details: isolate 469/11, 24 h, read-out: MBC99.9
# [34] = test system: Staphylococcus epidermidis; test: Bactericidal activity against Staphylococcus epidermidis ATCC 35984 after 24 hrs; type: functional; details: ATCC 35984, 24 h, read-out: MBC99.9
# Pseudomonas aeruginosa [35] = test: Bactericidal activity against Pseudomonas aeruginosa ATCC 15442 after 24 hrs; type: functional; details: ATCC 15442, 24 h, read-out: MBC99.9
# [36] = test system: Staphylococcus epidermidis; test: Bactericidal activity against methicillin-resistant Staphylococcus epidermidis isolate 457/11 after 24 hrs; type: functional; details: isolate 457/11, 24 h, read-out: MBC99.9
# [37] = test system: Staphylococcus epidermidis; test: Bactericidal activity against methicillin-resistant Staphylococcus epidermidis isolate 403/10 after 24 hrs; type: functional; details: isolate 403/10, 24 h, read-out: MBC99.9
# [38] = test system: Staphylococcus epidermidis; test: Antimicrobial activity against methicillin-resistant Staphylococcus epidermidis isolate 469/11 after 18 hrs by twofold serial broth dilution method; type: functional; details: isolate 469/11, 18 h
# [39] = test system: Staphylococcus epidermidis; test: Bactericidal activity against methicillin-resistant Staphylococcus epidermidis isolate 422/10 after 24 hrs; type: functional; details: isolate 422/10, 24 h, read-out: MBC99.9
# Bacillus subtilis [40] = test: Genotoxicity in rec-negative Bacillus subtilis M45 at 2 ug/9 mm disc after 24 hrs by disc diffusion method; type: toxicity, organism-based
# Pseudomonas aeruginosa [41] = test: Antimicrobial activity against Pseudomonas aeruginosa NCTC 6749 after 18 hrs by twofold serial broth dilution method; type: functional; details: NCTC 6749, 18 h
# Escherichia coli [42] = test: Bactericidal activity against Escherichia coli ATCC 25922 after 24 hrs; type: functional; details: ATCC 25922, 24 h, read-out: MBC99.9
# [43] = test system: Staphylococcus epidermidis; test: Antimicrobial activity against Staphylococcus epidermidis ATCC 12228 after 18 hrs by twofold serial broth dilution method; type: functional; details: ATCC 12228, 18 h
smiles,measurement,setting,value
CCCN(CCC)C(=O)[C@H](CC)[C@H]1CC[C@H](C)[C@H]([C@@H](C)[C@H](O)[C@H](C)C(=O)[C@H](CC)[C@H]2O[C@]3(C=C[C@@H](O)[C@]4(CC[C@@](C)([C@H]5CC[C@](O)(CC)[C@H](C)O5)O4)O3)[C@H](C)C[C@@H]2C)O1,MBC,Pseudomonas aeruginosa [1],> 256 µg/mL
same,MIC,Staphylococcus aureus [2],2 µg/mL
same,MBC,[3],256 µg/mL
same,MBC,[4],128 µg/mL
same,MBC,[5],256 µg/mL
same,MBC,[6],128 µg/mL
same,MBC,[7],256 µg/mL
same,MIC,Pseudomonas aeruginosa [8],> 256 µg/mL
same,MIC,[9],8 µg/mL
same,MIC,Staphylococcus aureus [10],1 µg/mL
same,MBC,Escherichia coli [11],> 256 µg/mL
same,MBC,Staphylococcus aureus [12],> 256 µg/mL
same,MBC,Staphylococcus aureus [13],256 µg/mL
same,MIC,Escherichia coli [14],> 256 µg/mL
same,MBC,[15],128 µg/mL
same,MIC,[16],4 µg/mL
same,MIC,[17],8 µg/mL
same,diameter of the inhibition zone (DIZ),Bacillus subtilis [18],28 mm
same,MIC,Bacillus anthracis,4 µg/mL
same,MIC,[19],4 µg/mL
same,MBC,Escherichia coli [20],> 256 µg/mL
same,MIC,[21],8 µg/mL
same,MIC,[22],8 µg/mL
same,MIC,Escherichia coli [23],> 256 µg/mL
same,MBC,Staphylococcus aureus [24],> 256 µg/mL
same,MIC,[25],2 µg/mL
same,MIC,Pseudomonas aeruginosa [26],> 256 µg/mL
same,MIC,[27],8 µg/mL
same,MIC,[28],8 µg/mL
same,MIC,Staphylococcus aureus [29],1 µg/mL
same,MIC,[30],4 µg/mL
same,MIC,Staphylococcus aureus [31],2 µg/mL
same,MIC,[32],8 µg/mL
same,MBC,[33],128 µg/mL
same,MBC,[34],256 µg/mL
same,MBC,Pseudomonas aeruginosa [35],> 256 µg/mL
same,MBC,[36],256 µg/mL
same,MBC,[37],128 µg/mL
same,MIC,[38],4 µg/mL
same,MBC,[39],128 µg/mL
same,diameter of the inhibition zone (DIZ),Bacillus subtilis [40],26 mm
same,MIC,Pseudomonas aeruginosa [41],> 256 µg/mL
same,MBC,Escherichia coli [42],> 256 µg/mL
same,MIC,[43],2 µg/mL
CC[C@@H](C(=O)[C@@H](C)[C@@H](O)[C@H](C)[C@@H]1O[C@@H]([C@@H](CC)C(=O)N(CCO)CCO)CC[C@@H]1C)[C@H]1O[C@]2(C=C[C@@H](O)[C@]3(CC[C@@](C)([C@H]4CC[C@](O)(CC)[C@H](C)O4)O3)O2)[C@H](C)C[C@@H]1C,MBC,Pseudomonas aeruginosa [1],> 256 µg/mL
same,MIC,Staphylococcus aureus [2],4 µg/mL
same,MBC,[3],256 µg/mL
same,MBC,[4],128 µg/mL
same,MBC,[5],256 µg/mL
same,MBC,[6],256 µg/mL
same,MBC,[7],128 µg/mL
same,MIC,Pseudomonas aeruginosa [8],> 256 µg/mL
same,MIC,[9],8 µg/mL
same,MIC,Staphylococcus aureus [10],4 µg/mL
same,MBC,Escherichia coli [11],> 256 µg/mL
same,MBC,Staphylococcus aureus [12],256 µg/mL
same,MBC,Staphylococcus aureus [13],128 µg/mL
same,MIC,Escherichia coli [14],> 256 µg/mL
same,MBC,[15],128 µg/mL
same,MIC,[16],4 µg/mL
same,MIC,[17],4 µg/mL
same,diameter of the inhibition zone (DIZ),Bacillus subtilis [18],28 mm
same,MIC,Bacillus anthracis,2 µg/mL
same,MIC,[19],4 µg/mL
same,MBC,Escherichia coli [20],> 256 µg/mL
same,MIC,[21],2 µg/mL
same,MIC,[22],4 µg/mL
same,MIC,Escherichia coli [23],> 256 µg/mL
same,MBC,Staphylococcus aureus [24],256 µg/mL
same,MIC,[25],4 µg/mL
same,MIC,Pseudomonas aeruginosa [26],> 256 µg/mL
same,MIC,[27],4 µg/mL
same,MIC,[28],4 µg/mL
same,MIC,Staphylococcus aureus [29],4 µg/mL
same,MIC,[30],2 µg/mL
same,MIC,Staphylococcus aureus [31],4 µg/mL
same,MIC,[32],4 µg/mL
same,MBC,[33],256 µg/mL
same,MBC,[34],128 µg/mL
same,MBC,Pseudomonas aeruginosa [35],> 256 µg/mL
same,MBC,[36],256 µg/mL
same,MBC,[37],128 µg/mL
same,MIC,[38],4 µg/mL
same,MBC,[39],128 µg/mL
same,diameter of the inhibition zone (DIZ),Bacillus subtilis [40],29 mm
same,MIC,Pseudomonas aeruginosa [41],> 256 µg/mL
same,MBC,Escherichia coli [42],> 256 µg/mL
same,MIC,[43],4 µg/mL
